Measured values reported in ChEMBL document CHEMBL3044999, “Chemical basis for the antifeedant activity of natural hydroxamic acids and related compounds” (2004).

test system: Rhopalosiphum padi; test: Antifeedant activity against third-instar larvae of Rhopalosiphum padi assessed as repellency index after 24 hr by feeding choice assay; assay type: functional; design: concentration or dose not given beside the values

Point of comparison: `COc1ccc2c(c1)OCC(=O)N2O`, Activity 52%. Against it:
- O=C(O)c1ccc2c(c1)OCC(=O)N2O — lower, 2.5%
- O=C1COc2ccccc2N1 — lower, 17%
- COC1Oc2ccccc2N(O)C1=O (configuration not stated) — lower, 0%
- O=C1Nc2ccccc2OC1O (configuration not stated) — lower, 38%
- COc1ccc2c(c1)OC(O)C(=O)N2O (configuration not stated) — higher, 74%
- COc1ccc2c(c1)OCC(=O)N2 — lower, 18%
- O=C1C(O)Oc2ccccc2N1O (configuration not stated) — higher, 92.3%
- COC(=O)c1ccc2c(c1)OCC(=O)N2O [7-MeOCO-D-DIBOA] — lower, 32%
- O=C1COc2ccccc2N1O — lower, 26%
- COc1ccc2c(c1)OC(O)C(=O)N2 (configuration not stated) — lower, 35%
- COc1ccc2c(c1)OC(OC)C(=O)N2O (configuration not stated) — lower, 33.3%
